Assay results as given in US20060034781A1, “PERORAL PREPARATION FOR PREVENTION OR TREATMENT OF ATOPIC DERMATATIS” (Kyowa Hakko Kogyo Co., Ltd., priority 2002, published 2006).

Columns and labels:
Format in all cases: in vivo
Settings in all cases: oral, in feed (0.25% N-acetyl-trans-4-hydroxy-L-proline or 0.5% trans-4-hydroxy-L-proline) versus control feed
NC/Nga mice = test: Suppression of auricular edema in DNCB-treated atopic dermatitis model mice
Protocol: (§1) For the test, NC/Nga mice (five weeks age; purchased from Charles River) were used. The breeding conditions were that the mice were bred under room temperature of 22±2° C. and humidity of 35±15% and that feed and water were freely taken by them.
(§2) The test feed was prepared by well mixing of powdery feed CE-2 (manufactured by Nippon Claire) with 0.25% by weight of N-acetyl-trans-4-hydroxy-L-proline or 0.50% by weight of trans-4-hydroxy-L-proline. The feed containing N-acetyl-trans-4-hydroxy-L-proline was named a feed 1 while the feed containing trans-4-hydroxy-L-proline was named a feed 2 and, as a control feed, a powdery feed CE-2 was used.
With regard to the hapten, a product prepared by dissolving 1.5% by weight of dinitrochlorobenzene (DNCB) in a solution comprising 20% by volume of olive oil and 80% by volume of acetone was used. […]
Starting from the day when application of the hapten started, thickness of the right auricle was measured using Pescock Dial Thickness Gauge (manufactured by Ozaki Seisakusho) one daily.
An increasing amount of auricular edema was calculated according to the following formula 1 as a relative value to an increasing amount of auricular edema of a mouse which was not treated with DNCB and the result is shown in Table 2. […]

mast cells = test: Mast cell density at auricle of atopic dermatitis model mice (Toluidine Blue staining)
Protocol: as §1, §2
(§3) With regard to the hapten, a product prepared by dissolving 1.5% by weight of dinitrochlorobenzene (DNCB) in a solution comprising 20% by volume of olive oil and 80% by volume of acetone was used.
(§4) Three mice were used for each of the test groups, and 20 μl of 1.5% DNCB was respectively applied onto both side of the right auricle of each of the mice after nine days, ten days, thirteen days and fourteen days from initiation of administration of the test feed.
With regard to the model mice where atopic dermatitis appeared used in Test Example 1, tissues at auricle were frozen and embedded in Tissue-Tek O. C. T. Compound (manufactured by Sakura Seiki K. K.) on the 27th day from initiation of administration of the test feed. […]

IgE = IgE concentration in serum of atopic dermatitis model mice (ELISA)
Protocol: as §1, §2, §3, §4
With regard to the model mice where atopic dermatitis appeared used in Test Example 1, blood was collected from right thigh on the 27th day from initiation of administration of the test feed. […]

SMILES	auricular edema induced by DNCB (result in words) (NC/Nga mice)	increase in mast cell density by application of DNCB (result in words) (mast cells)	increase in IgE concentration in serum by application of DNCB (result in words) (IgE)
CC(=O)N1C[C@H](O)C[C@H]1C(=O)O [N-acetyl-trans-4-hydroxy-L-proline]	apparently suppressed	apparently suppressed	significantly suppressed
O=C(O)[C@@H]1C[C@@H](O)CN1 [trans-4-hydroxy-L-proline]	apparently suppressed	apparently suppressed	significantly suppressed
